Assays:
HepG2 cells = assay: ROS induction (CM-H2DCFDA); type: cell-based; conditions: Homo sapiens, HepG2, 72 h; read-out: ROS induction EC50
Method: (A) Hepatotoxicity provoked by compound 4 was assessed after 72 h incubation of HepG2 cells in low glucose medium (5 mM) in the presence of compound 4 (0.25–100 μM). (B) Mitochondrial toxicity was determined after 24 h incubation of HepG2 cells in either high glucose medium (25 mM) or galactose medium (10 mM) in the presence of compound 4 (2.5–150 μM). Cell viabilities were recorded in triplicates in three independent experiments and expressed as percentage of vehicle control ± SD and IC50 values were determined by GraphPad Prism software using following equation: Y = Bottom + (Top–Bottom)/(1 + 10ˆ((LogIC50-X)^∗HillSlope)), where IC50 is the concentration of compound 4 that inhibits cell viability half way between Bottom and Top plateaus, X is compound 4 concentration and HillSlope describes the steepness of the family of curves. […] (C) Concentration-dependent effect on ROS level. HepG2 cells were treated with compound 4 (0.25–100 μM) for 72 h, and then the intracellular level of total ROS in relative fluorescence units (RFU) was detected. The data are presented as the mean ± SD for at least three independent experiments and each experiment was carried out in triplicate. Final concentration of DMSO in samples was 1%. […] Single asterisks (^∗) indicate a significant difference (P < 0.05) compared to 1% DMSO control (one-way ANOVA with Dunnett’s post-test).
The effect of neurosteroids on oxidative stress was determined using general oxidative stress indicator CM-H2DCFDA (Thermo Fisher Scientific, Waltham, MA, United States) according to the manufacturer’s instructions. Briefly HepG2 cells were seeded in a 96-well plate at a density of 13,500 cells per well. After 24 h, the tested neurosteroids were added to the culture media and incubated for 72 h. Subsequently, cells were washed with HBSS, treated with 100 μL of 1 μM CM-H2DCF-DA solution in HBSS and incubated for 1 h in the dark at 37°C. Finally, cells were washed three times with HBSS and the fluorescence was measured using 495 excitation and 527 emission in fluorescence microplate reader (Cytation 3, Winooski, VT, United States). IC50 index values were determined by GraphPad Prism version 5.00 for Windows (GraphPad Software, La Jolla, CA, United States).

GluN1/GluN2D receptors = target: T1, GluN1/GluN2D receptors (Rattus norvegicus, UniProt P35439+Q62645); assay: Patch-clamp inhibition of GluN1/GluN2D receptors in transfected HEK293 cells; type: cell-based; conditions: 1 mM glutamate and 10 μM glycine
T1 construct: expressed in transfected cells; host or cells: HEK293
T1 sequence (Q62645 28-1323, other chains not shown): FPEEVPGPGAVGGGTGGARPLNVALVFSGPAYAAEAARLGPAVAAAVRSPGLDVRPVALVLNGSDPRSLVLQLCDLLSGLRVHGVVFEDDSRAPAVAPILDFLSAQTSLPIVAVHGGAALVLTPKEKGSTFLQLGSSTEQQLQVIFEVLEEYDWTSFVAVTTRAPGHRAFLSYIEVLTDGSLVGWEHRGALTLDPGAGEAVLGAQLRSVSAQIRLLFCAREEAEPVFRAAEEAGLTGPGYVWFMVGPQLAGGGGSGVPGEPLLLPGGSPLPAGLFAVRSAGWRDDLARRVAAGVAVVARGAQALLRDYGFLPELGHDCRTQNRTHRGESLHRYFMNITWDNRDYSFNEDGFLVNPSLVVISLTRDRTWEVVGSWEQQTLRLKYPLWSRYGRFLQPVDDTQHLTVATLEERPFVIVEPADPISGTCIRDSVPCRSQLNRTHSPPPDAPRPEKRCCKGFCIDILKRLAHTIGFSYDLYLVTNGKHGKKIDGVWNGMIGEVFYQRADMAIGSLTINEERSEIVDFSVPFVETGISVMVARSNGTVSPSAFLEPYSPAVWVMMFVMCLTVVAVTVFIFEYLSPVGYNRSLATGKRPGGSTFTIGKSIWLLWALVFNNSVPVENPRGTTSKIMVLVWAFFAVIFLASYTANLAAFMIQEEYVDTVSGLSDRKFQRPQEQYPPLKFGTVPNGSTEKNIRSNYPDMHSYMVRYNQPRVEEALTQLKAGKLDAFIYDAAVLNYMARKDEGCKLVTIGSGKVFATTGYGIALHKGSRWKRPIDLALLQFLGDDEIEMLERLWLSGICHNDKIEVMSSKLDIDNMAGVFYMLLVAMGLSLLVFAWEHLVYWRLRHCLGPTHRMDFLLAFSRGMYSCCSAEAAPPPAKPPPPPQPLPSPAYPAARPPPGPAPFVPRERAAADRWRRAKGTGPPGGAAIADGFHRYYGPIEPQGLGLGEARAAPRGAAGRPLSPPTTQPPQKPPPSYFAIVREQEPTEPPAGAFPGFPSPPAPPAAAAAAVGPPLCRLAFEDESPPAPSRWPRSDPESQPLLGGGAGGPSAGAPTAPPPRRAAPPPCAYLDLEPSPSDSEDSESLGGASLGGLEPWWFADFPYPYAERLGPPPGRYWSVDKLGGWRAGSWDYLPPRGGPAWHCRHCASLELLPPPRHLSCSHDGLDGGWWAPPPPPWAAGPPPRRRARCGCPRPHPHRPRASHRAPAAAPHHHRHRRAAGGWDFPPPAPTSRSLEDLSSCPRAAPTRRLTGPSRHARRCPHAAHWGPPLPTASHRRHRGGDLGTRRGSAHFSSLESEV
Method: FIGURE 7 Concentration–response properties of compound 6 on GluN1/GluN2A-D receptors. (A) Examples of traces obtained from HEK293 cells transfected with cDNAs encoding GluN1/GluN2A, GluN1/GluN2B, GluN1/GluN2C, and GluN1/GluN2D receptors. Agonists (1 mM glutamate and 10 μM glycine) were applied alone and simultaneously with compound 6 (10 μM) to evaluate the inhibitory effect of compound 6 on NMDAR mediated currents (duration of glutamate and steroid application is indicated by filled and open bars, respectively). (B) Concentration–response curves for the compound 6 effect at GluN1/GluN2A-D receptors. Data points are averaged values of normalized responses from at least four HEK293 cells. Error bars represent SD.
Electrophysiological experiments were performed on HEK293 cells transfected with plasmids encoding rat GluN1-1a/GluN2A-D and GFP genes as described previously, ([Petrovic et al., 2005]; [Cais et al., 2008]; [Korinek et al., 2010]) or on primary hippocampal neurons prepared from P0–P1 rats, plated on collagen/poly-D-lysine-coated glass coverslips at a density of ∼50,000 cells/cm^2, and grown in Neurobasal A medium with B27 Supplement (Gibco). Agonist-induced responses were voltage-clamped at a holding potential of −60 mV. […] Agonist-induced responses were low-pass filtered at 2 kHz, digitally sampled at 5 kHz, and analyzed with pClamp software version 10.5 (Molecular Devices). […]

C[C@@]12CCC[C@H]1[C@@H]1CC[C@@H]3C[C@H](NC(=O)[C@@H](N)CC(=O)O)CC[C@]3(C)[C@H]1CC2 [Compound 6, (S)-3-amino-4-(((3R,5R,8S,9S,10S,13S,14S)-10,13-dimethylhexadecahydro-1H-cyclopenta[a]phenanthren-3-yl)amino)-4-oxobutanoic acid]
EC50 (HepG2 cells): > 200 µM | h ± SD (apparent Hill coefficient) (GluN1/GluN2D receptors): 1.6 ± 0.3 | IC50 (GluN1/GluN2D receptors; concentration-response): 8.4 ± 1 µM
